Columns and labels:
Assay in all cases: Test C preemergence
barnyardgrass = format: in vivo, Echinochloa crus-galli; conditions: Echinochloa crus-galli, pre-emergence
How it was run: (§1)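 Seeds are planted in blended loam soil and sand and treated preemergence, while seedlings in a peat moss/vermiculite medium receive postemergence sprays at 2 to 18 cm height. All plants stay in the greenhouse for 13 to 15 days before visual comparison with controls on a 0–100 scale.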

oilseed rape = format: in vivo, Brassica napus; conditions: Brassica napus, pre-emergence
How it was run: as §1

yellow nutsedge = format: in vivo, Cyperus esculentus; conditions: Cyperus, pre-emergence
How it was run: as §1

blackgrass = format: in vivo, Alopecurus myosuroides; conditions: Alopecurus myosuroides, pre-emergence
How it was run: as §1

pigweed = format: in vivo, Amaranthus retroflexus; conditions: Amaranthus retroflexus, pre-emergence
How it was run: as §1

waterhemp = format: in vivo, Amaranthus rudis; conditions: Amaranthus tuberculatus, pre-emergence
How it was run: as §1

lambsquarters = format: in vivo, Chenopodium album; conditions: Chenopodium album, pre-emergence
How it was run: as §1

ragweed = format: in vivo, Ambrosia elatior; conditions: Ambrosia artemisiifolia, pre-emergence
How it was run: as §1

corn = format: in vivo, Zea mays; conditions: Zea mays, pre-emergence
How it was run: as §1

johnsongrass = format: in vivo, Sorghum halepense; conditions: Sorghum halepense, pre-emergence
How it was run: as §1

large (Lg) crabgrass = format: in vivo, Digitaria sanguinalis; conditions: Digitaria sanguinalis, pre-emergence
How it was run: as §1

giant foxtail = format: in vivo, Setaria faberii; conditions: Setaria faberi, pre-emergence
How it was run: as §1

galium = format: in vivo, Galium aparine; conditions: Galium, pre-emergence
How it was run: as §1

SMILES: N#Cc1cccc(Oc2ncc(F)cn2)c1-n1cc(C(F)(F)F)cn1 [Compound 79, 3-[(5-fluoro-2-pyrimidinyl)oxy]-2-[4-(trifluoromethyl)-1H-pyrazol-1-yl]benzonitrile]
- pest or weed control at 62 g/ha (barnyardgrass; 62 g ai/ha, preemergence, scale 0 (no effect) to 100 (complete control), read-out: Barnyardgrass plant response rating): 100%
- pest or weed control at 125 g/ha (barnyardgrass; 125 g ai/ha, preemergence, scale 0 (no effect) to 100 (complete control), read-out: Barnyardgrass plant response rating): 100%
- pest or weed control at 250 g/ha (barnyardgrass; 250 g ai/ha, preemergence, scale 0 (no effect) to 100 (complete control), read-out: Barnyardgrass plant response rating): 100%
- pest or weed control at 31 g/ha (barnyardgrass; Preemergence, 31 g ai/ha, scale 0 to 100, 0 no effect, 100 complete control, read-out: Plant response rating, Barnyardgrass): 100%
- plant injury at 62 g/ha (oilseed rape; 62 g ai/ha, preemergence, scale 0 (no effect) to 100 (complete control), read-out: Oilseed Rape plant response rating): 95%
- plant injury at 125 g/ha (oilseed rape; 125 g ai/ha, preemergence, scale 0 (no effect) to 100 (complete control), read-out: Oilseed Rape plant response rating): 95%
- plant injury at 250 g/ha (oilseed rape; 250 g ai/ha, preemergence, scale 0 (no effect) to 100 (complete control), read-out: Oilseed Rape plant response rating): 95%
- plant injury at 31 g/ha (oilseed rape; Preemergence, 31 g ai/ha, scale 0 to 100, 0 no effect, 100 complete control, read-out: Plant response rating, Oilseed Rape): 90%
- pest or weed control at 62 g/ha (yellow nutsedge; 62 g ai/ha, preemergence, scale 0 (no effect) to 100 (complete control), read-out: Nutsedge, Yellow plant response rating): 15%
- pest or weed control at 125 g/ha (yellow nutsedge; 125 g ai/ha, preemergence, scale 0 (no effect) to 100 (complete control), read-out: Nutsedge, Yellow plant response rating): 65%
- pest or weed control at 250 g/ha (yellow nutsedge; 250 g ai/ha, preemergence, scale 0 (no effect) to 100 (complete control), read-out: Nutsedge, Yellow plant response rating): 75%
- pest or weed control at 31 g/ha (yellow nutsedge; Preemergence, 31 g ai/ha, scale 0 to 100, 0 no effect, 100 complete control, read-out: Plant response rating, Nutsedge, Yellow): 10%
- pest or weed control at 62 g/ha (blackgrass; 62 g ai/ha, preemergence, scale 0 (no effect) to 100 (complete control), read-out: Blackgrass plant response rating): 90%
- pest or weed control at 125 g/ha (blackgrass; 125 g ai/ha, preemergence, scale 0 (no effect) to 100 (complete control), read-out: Blackgrass plant response rating): 90%
- pest or weed control at 250 g/ha (blackgrass; 250 g ai/ha, preemergence, scale 0 (no effect) to 100 (complete control), read-out: Blackgrass plant response rating): 90%
- pest or weed control at 31 g/ha (blackgrass; Preemergence, 31 g ai/ha, scale 0 to 100, 0 no effect, 100 complete control, read-out: Plant response rating, Blackgrass): 90%
- pest or weed control at 62 g/ha (pigweed; 62 g ai/ha, preemergence, scale 0 (no effect) to 100 (complete control), read-out: Pigweed plant response rating): 100%
- pest or weed control at 125 g/ha (pigweed; 125 g ai/ha, preemergence, scale 0 (no effect) to 100 (complete control), read-out: Pigweed plant response rating): 100%
- pest or weed control at 250 g/ha (pigweed; 250 g ai/ha, preemergence, scale 0 (no effect) to 100 (complete control), read-out: Pigweed plant response rating): 100%
- pest or weed control at 31 g/ha (pigweed; Preemergence, 31 g ai/ha, scale 0 to 100, 0 no effect, 100 complete control, read-out: Plant response rating, Pigweed): 100%
- pest or weed control at 62 g/ha (waterhemp; 62 g ai/ha, preemergence, scale 0 (no effect) to 100 (complete control), read-out: Waterhemp plant response rating): 100%
- pest or weed control at 125 g/ha (waterhemp; 125 g ai/ha, preemergence, scale 0 (no effect) to 100 (complete control), read-out: Waterhemp plant response rating): 100%
- pest or weed control at 250 g/ha (waterhemp; 250 g ai/ha, preemergence, scale 0 (no effect) to 100 (complete control), read-out: Waterhemp plant response rating): 100%
- pest or weed control at 31 g/ha (waterhemp; Preemergence, 31 g ai/ha, scale 0 to 100, 0 no effect, 100 complete control, read-out: Plant response rating, Waterhemp): 100%
- pest or weed control at 62 g/ha (lambsquarters; 62 g ai/ha, preemergence, scale 0 (no effect) to 100 (complete control), read-out: Lambsquarters plant response rating): 100%
- pest or weed control at 125 g/ha (lambsquarters; 125 g ai/ha, preemergence, scale 0 (no effect) to 100 (complete control), read-out: Lambsquarters plant response rating): 100%
- pest or weed control at 250 g/ha (lambsquarters; 250 g ai/ha, preemergence, scale 0 (no effect) to 100 (complete control), read-out: Lambsquarters plant response rating): 100%
- pest or weed control at 31 g/ha (lambsquarters; Preemergence, 31 g ai/ha, scale 0 to 100, 0 no effect, 100 complete control, read-out: Plant response rating, Lambsquarters): 100%
- pest or weed control at 62 g/ha (ragweed; 62 g ai/ha, preemergence, scale 0 (no effect) to 100 (complete control), read-out: Ragweed plant response rating): 90%
- pest or weed control at 125 g/ha (ragweed; 125 g ai/ha, preemergence, scale 0 (no effect) to 100 (complete control), read-out: Ragweed plant response rating): 90%
- pest or weed control at 250 g/ha (ragweed; 250 g ai/ha, preemergence, scale 0 (no effect) to 100 (complete control), read-out: Ragweed plant response rating): 90%
- pest or weed control at 31 g/ha (ragweed; Preemergence, 31 g ai/ha, scale 0 to 100, 0 no effect, 100 complete control, read-out: Plant response rating, Ragweed): 90%
- plant injury at 125 g/ha (corn; 125 g ai/ha, preemergence, scale 0 (no effect) to 100 (complete control), read-out: Corn plant response rating): 80%
- plant injury at 250 g/ha (corn; 250 g ai/ha, preemergence, scale 0 (no effect) to 100 (complete control), read-out: Corn plant response rating): 95%
- Corn plant response rating (crop injury, 0 = no effect, 100 = complete kill) at 31 g/ha (corn; Preemergence, 31 g ai/ha, scale 0 to 100, 0 no effect, 100 complete control): 40%
- pest or weed control at 62 g/ha (johnsongrass; 62 g ai/ha, preemergence, scale 0 (no effect) to 100 (complete control), read-out: Johnsongrass plant response rating): 90%
- pest or weed control at 125 g/ha (johnsongrass; 125 g ai/ha, preemergence, scale 0 (no effect) to 100 (complete control), read-out: Johnsongrass plant response rating): 100%
- pest or weed control at 250 g/ha (johnsongrass; 250 g ai/ha, preemergence, scale 0 (no effect) to 100 (complete control), read-out: Johnsongrass plant response rating): 100%
- pest or weed control at 31 g/ha (johnsongrass; Preemergence, 31 g ai/ha, scale 0 to 100, 0 no effect, 100 complete control, read-out: Plant response rating, Johnsongrass): 75%
- pest or weed control at 62 g/ha (large (Lg) crabgrass; 62 g ai/ha, preemergence, scale 0 (no effect) to 100 (complete control), read-out: Crabgrass, Large plant response rating): 100%
- pest or weed control at 125 g/ha (large (Lg) crabgrass; 125 g ai/ha, preemergence, scale 0 (no effect) to 100 (complete control), read-out: Crabgrass, Large plant response rating): 100%
- pest or weed control at 250 g/ha (large (Lg) crabgrass; 250 g ai/ha, preemergence, scale 0 (no effect) to 100 (complete control), read-out: Crabgrass, Large plant response rating): 100%
- pest or weed control at 31 g/ha (large (Lg) crabgrass; Preemergence, 31 g ai/ha, scale 0 to 100, 0 no effect, 100 complete control, read-out: Plant response rating, Crabgrass, Large): 100%
- pest or weed control at 62 g/ha (giant foxtail; 62 g ai/ha, preemergence, scale 0 (no effect) to 100 (complete control), read-out: Foxtail, Giant plant response rating): 100%
- pest or weed control at 125 g/ha (giant foxtail; 125 g ai/ha, preemergence, scale 0 (no effect) to 100 (complete control), read-out: Foxtail, Giant plant response rating): 100%
- pest or weed control at 250 g/ha (giant foxtail; 250 g ai/ha, preemergence, scale 0 (no effect) to 100 (complete control), read-out: Foxtail, Giant plant response rating): 100%
- pest or weed control at 31 g/ha (giant foxtail; Preemergence, 31 g ai/ha, scale 0 to 100, 0 no effect, 100 complete control, read-out: Plant response rating, Foxtail, Giant): 98%
- pest or weed control at 62 g/ha (galium; 62 g ai/ha, preemergence, scale 0 (no effect) to 100 (complete control), read-out: Galium plant response rating): 90%
- pest or weed control at 125 g/ha (galium; 125 g ai/ha, preemergence, scale 0 (no effect) to 100 (complete control), read-out: Galium plant response rating): 90%
- pest or weed control at 250 g/ha (galium; 250 g ai/ha, preemergence, scale 0 (no effect) to 100 (complete control), read-out: Galium plant response rating): 90%
- pest or weed control at 31 g/ha (galium; Preemergence, 31 g ai/ha, scale 0 to 100, 0 no effect, 100 complete control, read-out: Plant response rating, Galium): 90%

Reference: patent US9695155B2, “Herbicidal substituted pyrimidinyloxy benzene compounds” (E. I. DU PONT DE NEMOURS AND COMPANY, priority 2013, dated 2017)
